The test system of experiment [1] is RANKL knock-down MC3T3-E1 cells. As to the kind of experiment: ALP activity in RANKL knock-down MC3T3-E1 cells. In kind it is cell-based, mouse. The following applies: KD1 and KD2; 200 μM peptide D or 200 ng/ml BMP-2; 5 days.
The test system of the next experiment is RAW264 cells. The experiment in a line: TRAP activity in RAW264 cells with GST-RANKL. It is filed as cell-based. On the procedure:
Peptide E (SEQ ID NO: 16) was prepared from peptide D with the substitution of a single amino acid. TRAP activity and ALP activity were determined to compare peptide D and peptide E in terms of effects of causing osteoclast differentiation and osteoblast differentiation. RAW264 cells mixed with 10% FBS+αMEM (SIGMA) were seeded on a 96-well plate (2×10^3 cells/well). After confirmation of cell adhesion, the medium was replaced with 10% FBS+αMEM containing 10 nM GST-RANKL (Oriental Yeast Co., Ltd.). Peptide D and peptide E were separately added thereto at concentrations of 25, 50, 100, and 200 μM, followed by culture for 4 days. After the termination of culture, 100 μL acetone/ethanol was added to each well for cell fixation, followed by drying in a draft for 30 min.
In order to obtain a TRAP solution buffer at a concentration of 1.5 mg/mL, a solution was prepared by adjusting p-nitrophenyl phosphate (Nacalai) with 50 mM citric acid buffer and adding a 0.2 M sodium tartrate solution in a volume 1/10 that of citric acid buffer. The obtained TRAP solution buffer was added to each well in an amount of 100 μL followed by incubation at 37° C. for 45 min. Then, a 1N NaOH solution (50 μL) was added thereto to terminate the reaction. The OD value at 405 nm was determined for each well with a microplate reader (BMG Labtech) in the same manner as in Example 1.
RAW264 cells mixed with 10% FBS+αMEM (SIGMA) were seeded on a 96-well plate (2×10^3 cells/well). After cell adhesion had taken place, the medium was replaced with 10% FBS+αMEM containing 5 nM GST-RANKL (Oriental Yeast Co., Ltd.). Peptide D in the form of TFA, peptide D in the form of acetate, and peptide D in the form of hydrochloride with concentrations of 25 and 100 μM were separately added thereto, followed by culture for 4 days. After the completion of culture, acetone/ethanol (100 μL) was added to each well for cell fixation, followed by drying in a draft for 30 min. TRAP activity determination was carried out by the method described in Example 16. […] Peptide D in the form of hydrochloride was confirmed to have neither osteoblast differentiation activity nor osteoclastgenesis inhibition activity. However, peptide D in the form of acetate was confirmed to have higher osteoblast differentiation activity and lower osteoclastgenesis inhibition activity compared with peptide D in the form of TFA. […] It is also possible to produce modified peptide D having osteoblast differentiation activity alone or modified peptide D having osteoclastgenesis inhibition activity alone.

Experiment [2] deals with MC3T3-E1 cells. The experiment in a line: Alizarin red S staining (calcification) of MC3T3-E1 cells. In kind it is cell-based, mouse. As to conditions: 300 μM; Day 21; differentiation medium and maintenance medium. How it is done:
On Day 21 after differentiation, the cells were washed with PBS, followed by fixation with a 10% neutral buffer formalin solution.
The cells were washed with water after removal of the fixative solution. A 1% alizarin red S stain solution (Nacalai) (150 μL) was added thereto. The plate was left at room temperature for 3 minutes. Thereafter, the stain solution was discarded, followed by washing with water and drying. Then, microscopic observation was carried out.
Cells mixed with 10% FBS+αMEM (GIBCO) were seeded on a 96-well plate (8×10^3 cells/well) and a 48-well plate (2×10^4 cells/well). The culture supernatant of each plate was replaced with 10% FBS+αMEM containing 5 mM β glycerophosphoric acid (SIGMA)+10 μg/mL sodium ascorbate (SIGMA) 48 hours later. Then, the medium was replaced with new medium every 3 or 4 days. As a control, MC3T3-E1 was cultured with the use of 10% FBS+αMEM as a maintenance medium. Upon medium replacement, a peptide was added to each plate at a concentration of 300 μM, ALP activity determination and alizarin red S staining were carried out by the method described in Example 1 on Days 7 and 21.

The target of the next experiment is T1, RANKL (Homo sapiens, UniProt O14788).
T1 sequence (O14788 140-317 limits assumed): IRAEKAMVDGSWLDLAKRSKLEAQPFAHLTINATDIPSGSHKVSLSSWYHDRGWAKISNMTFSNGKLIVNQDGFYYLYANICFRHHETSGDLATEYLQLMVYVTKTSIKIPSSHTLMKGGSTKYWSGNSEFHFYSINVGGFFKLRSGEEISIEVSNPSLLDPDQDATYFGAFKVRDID
The following applies: Aoki et al., J Clin Invest 116: 1525, 2006; cited from earlier work.

Experiment [3] has as its system MC3T3-E1 cells. As to the kind of experiment: RT-PCR verification of gene expression in MC3T3-E1 cells. It is filed as cell-based, mouse.
For the next experiment, the system named is mouse tibia. As to the kind of experiment: DNA microarray analysis of tibia of mice given peptide D. As to conditions: peptide D acetate 10 mg/kg s.c. three times daily for 5 days; n=2. It is filed as in vivo. On the procedure:
Total RNA (2 μg) extracted from the tibia of each mouse described in Example 24 was used for a DNA microarray (each group: n=2). According to a standard method, DNA microarray analysis (Mouse Genome 430 2.0 Affymetrix) was carried out. In addition, scanning was performed with a GeneChip Scanner 3000 (Affymetrix 690036) and digitalization was performed using the Gene Chip Operating Software ver. 1.4.

Bridges are numbered along the chain shown (N, C = ends). Where no end group is shown, it is not given here.

For “peptide D: cyclic peptide of SEQ ID NO: 7, 9 amino acids, two cysteine residues bound via a disulfide bond; binds to RANKL (YCWSQYLCY; disulfide 2-8 (inferred))”, the “ALP activity enhancement under RANKL knockdown” value in experiment [1] is listed as “significantly reduced”. Moreover, in the experiment with RAW264 cells (25, 50, 100 and 200 μM, 10 nM GST-RANKL, 4 days), the TRAP activity result is “inhibit TRAP activity”. Besides, the “TRAP activity, peptide D compared with peptide E” value in the experiment with RAW264 cells (100 and 200 μM) is listed as “significant inhibition actions compared with peptide E”. The “alizarin red staining (calcification)” value with MC3T3-E1 cells [2] is “strong degree of alizarin red staining”. Moreover, in the experiment with RANKL, the “binding to RANKL” value is recorded as “binds to RANKL”. Moreover, the “gene expression levels of IRS1, PDGFRβ, PDGFc, FGFR2, FGF2, CTGF, BMP-4 and IGF-2 (RT-PCR)” value with MC3T3-E1 cells [3] (200 μM peptide D (acetate)) is “significant increases in the gene expression levels”. In addition, in the experiment with MC3T3-E1 cells [3] (200 μM peptide D (acetate) or 150 ng/ml BMP-2), the “gene expression levels of ALP, Col1 and OC (RT-PCR)” value was “significant increases in the gene expression levels”. For the same substance, in the experiment on mouse tibia, the “microarray signals of OC, ALP, CoL1 α2, PDGFc, PDGFRβ and IGF-1 in tibia” value was “significantly higher signals”.

These data come from US20100260680A1, “NOVEL BONE MASS INCREASING AGENT” (ORIENTAL YEAST CO., LTD., priority 2007, published 2010).
